Results on 28 molecules are retold here after patent US9556179B2 (BRISTOL-MYERS SQUIBB COMPANY, priority 2012, dated 2017).

The structures appear in SMILES notation.

For one assay, the target named is CK1δ (Homo sapiens (Human), UniProt P48730). Description: CK1δ kinase assay (Caliper LABCHIP electrophoretic separation of fluoresceinated peptide substrate and product). In kind it is biochemical. Conditions: 200 pM enzyme, 50 μM ATP, 22 hours at room temperature. The procedure:
(§1) CK1ε and CK1δ Kinase Assays
(§2) The kinase assay was performed in V-bottom 384-well plates. […] The reaction was incubated at room temperature for 22 hours and terminated by adding 45 μl of 35 mM EDTA to each sample. The reaction mixture was analyzed on the Caliper LABCHIP®3000 (Caliper, Hopkinton, Mass.) by electrophoretic separation of the unphosphorylated substrate and phosphorylated product. […] Compounds were dissolved at 10 mM in dimethylsulfoxide (DMSO) and evaluated at eleven concentrations. IC50 values were derived by non-linear regression analysis.

A further assay has as its target CK1ε (Homo sapiens (Human), UniProt P49674). Description: CK1ε kinase assay (Caliper LABCHIP electrophoretic separation of fluoresceinated peptide substrate and product). In kind it is biochemical. To be noted: 200 pM enzyme, 50 μM ATP, 22 hours at room temperature. The procedure: as §1, §2

Chain of CK1δ (P48730 whole entry): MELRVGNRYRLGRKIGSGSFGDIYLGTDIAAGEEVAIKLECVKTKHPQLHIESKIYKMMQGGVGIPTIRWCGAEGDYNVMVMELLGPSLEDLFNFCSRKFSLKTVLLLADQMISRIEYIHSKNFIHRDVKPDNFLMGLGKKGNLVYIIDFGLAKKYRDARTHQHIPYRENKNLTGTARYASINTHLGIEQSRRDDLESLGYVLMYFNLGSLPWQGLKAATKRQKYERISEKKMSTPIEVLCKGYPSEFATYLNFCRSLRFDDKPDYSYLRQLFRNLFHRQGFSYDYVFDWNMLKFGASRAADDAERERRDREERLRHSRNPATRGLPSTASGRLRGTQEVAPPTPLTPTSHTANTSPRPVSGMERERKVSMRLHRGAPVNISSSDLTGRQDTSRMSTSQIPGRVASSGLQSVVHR
Chain of CK1ε (P49674 whole entry): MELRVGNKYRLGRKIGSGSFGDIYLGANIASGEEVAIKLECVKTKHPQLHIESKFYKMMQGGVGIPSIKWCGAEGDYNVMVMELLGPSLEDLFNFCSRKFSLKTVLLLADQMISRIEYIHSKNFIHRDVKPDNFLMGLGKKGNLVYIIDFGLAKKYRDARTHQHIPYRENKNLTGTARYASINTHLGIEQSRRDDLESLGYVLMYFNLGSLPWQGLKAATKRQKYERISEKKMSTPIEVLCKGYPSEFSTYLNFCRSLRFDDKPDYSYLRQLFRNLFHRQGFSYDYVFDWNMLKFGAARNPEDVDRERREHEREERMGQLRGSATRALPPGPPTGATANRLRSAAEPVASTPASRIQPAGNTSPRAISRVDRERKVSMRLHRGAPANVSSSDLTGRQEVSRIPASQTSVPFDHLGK

For the molecule `O=C(Nc1cn2nc(-c3c(-c4ccc(F)cc4)ncn3C3CCNCC3)ccc2n1)c1ccncc1` [Compound 1, N-(6-(4-(4-fluorophenyl)-1-(piperidin-4-yl)-1H-imidazol-5-yl)imidazo[1,2-b]pyridazin-2-yl)isonicotinamide], inhibition against CK1δ was half-maximal at 0.064 nM (IC50). This counts as picomolar.

On to `O=C(Nc1cn2nc(-c3c(-c4ccc(F)cc4)ncn3C3CCN(C[C@@H](O)C(F)(F)F)CC3)ccc2n1)c1ccncc1` [Compound 7, (R)—N-(6-(4-(4-fluorophenyl)-1-(1-(3,3,3-trifluoro-2-hydroxypropyl)piperidin-4-yl)-1H-imidazol-5-yl)imidazo[1,2-b]pyridazin-2-yl)isonicotinamide], for which the IC50 against CK1ε amounted to 1.77 nM.

The molecule `O=C(Nc1cn2nc(-c3c(-c4ccc(F)cc4)ncn3C3CCN(CC4CCOCC4)CC3)ccc2n1)c1ccnc(F)c1` [Compound 19] registered a concentration for half-maximal inhibition (IC50) against CK1δ of 0.611 nM.

In the case of `CN1CCC(CN2CCC(n3cnc(-c4ccc(F)cc4)c3-c3ccc4nc(NC(=O)c5ccnc(F)c5)cn4n3)CC2)CC1` [Compound 25, 2-fluoro-N-(6-(4-(4-fluorophenyl)-1-(1-((1-methylpiperidin-4-yl)methyl)piperidin-4-yl)-1H-imidazol-5-yl)imidazo[1,2-6]pyridazin-2-yl)isonicotinamide], inhibition against CK1δ was half-maximal at 0.532 nM (IC50).

`O=C(Nc1cn2nc(-c3c(-c4ccc(F)cc4)ncn3C3CCN(Cc4ncco4)CC3)ccc2n1)c1ccnc(F)c1` [Compound 29, 2-fluoro-N-(6-(4-(4-fluorophenyl)-1-(1-(oxazol-2-ylmethyl)piperidin-4-yl)-1H-imidazol-5-yl)imidazo[1,2-6]pyridazin-2-yl)isonicotinamide]: the IC50 against CK1δ turned out to be 0.226 nM. This IC50 is about 2.4-fold lower than that of the molecule before.

`O=C(Nc1cn2nc(-c3c(-c4ccc(F)cc4)ncn3C3CCN(Cc4ccc(O)nc4)CC3)ccc2n1)c1ccnc(F)c1` [Compound 30, 2-fluoro-N-(6-(4-(4-fluorophenyl)-1-(1-((6-hydroxypyridin-3-yl)methyl)piperidin-4-yl)-1H-imidazol-5-yl)imidazo[1,2-b]pyridazin-2-yl)isonicotinamide] gave an IC50 at CK1ε of 2 nM.

Molecule `O=C(Nc1cn2nc(-c3c(-c4ccc(F)cc4)ncn3C3CCN(C(=O)c4cocn4)CC3)ccc2n1)c1ccnc(F)c1` [Compound 43, 2-fluoro-N-(6-(4-(4-fluorophenyl)-1-(1-(oxazole-4-carbonyl)piperidin-4-yl)-1H-imidazol-5-yl)imidazo[1,2-6]pyridazin-2-yl)isonicotinamide] came in with an IC50 on CK1ε of 0.952 nM.

For `Cc1nocc1C(=O)N1CCC(n2cnc(-c3ccc(F)cc3)c2-c2ccc3nc(NC(=O)c4ccnc(F)c4)cn3n2)CC1` [Compound 63, 2-fluoro-N-(6-(4-(4-fluorophenyl)-1-(1-(3-methylisoxazole-4-carbonyl)piperidm-4-yl)-1H-imidazol-5-yl)imidazo[1,2-6]pyridazin-2-yl)isonicotinamide], on CK1ε, the midpoint of inhibition, the IC50, lay at 0.391 nM.

As to `O=C(Nc1cn2nc(-c3c(-c4ccc(F)cc4)ncn3C3CCN(C(=O)OCCC(F)(F)F)CC3)ccc2n1)c1ccnc(F)c1` [Compound 83, 3,3,3-trifluoropropyl 4-(5-(2-(2-fluoroisonicotinamido)imidazo[1,2-b]pyridazin-6-yl)-4-(4-fluorophenyl)-1H-imidazol-1-yl)piperidine-1-carboxylate], the midpoint of inhibition at CK1ε, the IC50, lay at 0.461 nM.

At CK1ε, `O=C(Nc1cn2nc(-c3c(-c4ccc(F)cc4)ncn3C3CCN(C(=O)CC(F)(F)F)CC3)ccc2n1)c1cc(F)nc(F)c1` [Compound 94, 2,6-difluoro-N-(6-(4-(4-fluorophenyl)-1-(1-(3,3,3-trifluoropropanoyl)piperidin-4-yl)-1H-imidazol-5-yl)imidazo[1,2-b]pyridazin-2-yl)isonicotinamide] came in with an IC50 of 1.27 nM.

Take `Cc1nc(-c2cccnc2)sc1C(=O)Nc1cn2nc(-c3c(-c4ccc(F)cc4)ncn3C3CCNCC3)ccc2n1` [Compound 95, N-(6-(4-(4-fluorophenyl)-1-(piperidin-4-yl)-1H-imidazol-5-yl)imidazo[1,2-b]pyridazin-2-yl)-4-methyl-2-(pyridin-3-yl)thiazole-5-carboxamide]: on CK1ε, the IC50 came to 0.17 nM.

At CK1ε, `Cc1nc(-c2cccnc2)sc1C(=O)Nc1cn2nc(-c3c(-c4ccc(F)cc4)ncn3C3CCN(C)CC3)ccc2n1` [Compound 96] registered an IC50 of 0.966 nM.

As for `Cc1nc(-c2ccncc2)sc1C(=O)Nc1cn2nc(-c3c(-c4ccc(F)cc4)ncn3C3CCN(CCO)CC3)ccc2n1` [Compound 105, N-(6-(4-(4-fluorophenyl)-1-(1-(2-hydroxyethyl)piperidin-4-yl)-1H-imidazol-5-yl)imidazo[1,2-b]pyridazin-2-yl)-4-methyl-2-(pyridin-4-yl) thiazole-5-carboxamide], inhibition at CK1ε was half-maximal at 0.096 nM (IC50).

The molecule `O=C(Nc1cn2nc(-c3c(-c4ccc(F)cc4)ncn3C3CCNCC3)ccc2n1)c1ccnc2ccccc12` [Compound 109, N-(6-(4-(4-fluorophenyl)-1-(piperidin-4-yl)-1H-imidazol-5-yl)imidazo[1,2-b]pyridazin-2-yl)quinoline-4-carboxamide] came in with a 50% inhibitory concentration (IC50) on CK1ε of 1.03 nM.

For the molecule `O=C(Nc1cn2nc(-c3c(-c4ccc(F)cc4)ncn3C3CCN(CCO)CC3)ccc2n1)c1ccnc2ccccc12` [Compound 111, N-(6-(4-(4-fluorophenyl)-1-(1-(2-hydroxyethyl)piperidin-4-yl)-1H-imidazol-5-yl)imidazo[1,2-b]pyridazin-2-yl)quinoline-4-carboxamide], the IC50 against CK1ε is 0.564 nM.

As for `Cc1nc(-c2ccncc2)sc1C(=O)Nc1cn2nc(-c3c(-c4ccc(F)cc4)ncn3C3CN(CCO)C3)ccc2n1` [Compound 152, N-(6-(4-(4-fluorophenyl)-1-(1-(2-hydroxyethyl)azetidin-3-yl)-1H-imidazol-5-yl)imidazo[1,2-b]pyridazin-2-yl)-4-methyl-2-(pyridin-4-yl)thiazole-5-carboxamide], on CK1ε, half-maximal inhibition (IC50) was put at 3.07 nM.

On CK1ε, `O=C(Nc1cn2nc(-c3c(-c4ccc(F)cc4)ncn3CC(O)CO)ccc2n1)c1ccnc(F)c1` (stereo not shown) [Compound 235, N-(6-(1-(2,3-dihydroxypropyl)-4-(4-fluorophenyl)-1H-imidazol-5-yl)imidazo[1,2-b]pyridazin-2-yl)-2-fluoroisonicotinamide, dimethyl-formamide] returned an IC50 of 2.82 nM.

Turning to `O=C(Nc1cn2nc(-c3c(-c4ccc(F)cc4)ncn3C3COC3)ccc2n1)c1ccnc(F)c1` [Compound 239, 2-fluoro-N-(6-(4-(4-fluorophenyl)-1-(oxetan-3-yl)-1H-imidazol-5-yl)imidazo[1,2-b]pyridazin-2-yl)iso-nicotinamide], the IC50 at CK1ε came to 5.18 nM.

Turning to `CC(C)(C)OCCn1cnc(-c2ccc(F)cc2)c1-c1ccc2nc(NC(=O)c3ccnc(F)c3)cn2n1` [Compound 260, N-(6-(1-(2-tert-butoxyethyl)-4-(4-fluorophenyl)-1H-imidazol-5-yl)imidazo[1,2-b]pyridazin-2-yl)-2-fluoroisonicotinamide], the IC50 against CK1ε was 5.53 nM. The IC50 values of the last two molecules are within 1.5-fold of each other.

The molecule `Cc1nc(-c2ccc(F)cc2)c(-c2ccc3nc(NC(=O)c4ccncc4)cn3n2)n1C` [Compound 301, N-(6-(4-(4-Fluorophenyl)-1,2-dimethyl-1H-imidazol-5-yl)imidazo[1,2-b]pyridazin-2-yl)isonicotinamide] returned an IC50 against CK1ε of 5.29 nM. This IC50 and that of the molecule before are within 1.5-fold of each other.

On CK1ε, `Cc1nc(-c2ccc(F)cc2)c(-c2ccc3nc(NC(=O)c4ccnc(N)c4)cn3n2)n1C` [Compound 323, 2-amino-N-(6-(4-(4-fluoro-phenyl)-1,2-dimethyl-1H-imidazol-5-yl)imidazo[1,2-b]pyridazin-2-yl)isonicotin-amide] returned an IC50 of 2.68 nM.

Molecule `Cc1cc(C(=O)Nc2cn3nc(-c4c(-c5ccc(F)cc5)nc(C)n4C)ccc3n2)[nH]n1` [Compound 349, N-(6-(4-(4-fluorophenyl)-1,2-dimethyl-1H-imidazol-5-yl)imidazo[1,2-b]pyridazin-2-yl)-5-methyl-1H-pyrazole-3-carboxamide] returned an IC50 on CK1ε of 6.89 nM.

On CK1ε, `Cc1nc(-c2ccc(F)cc2)c(-c2ccc3nc(NC(=O)c4cncnc4)cn3n2)n1C` [Compound 350, N-(6-(4-(4-fluorophenyl)-1,2-dimethyl-1H-imidazol-5-yl)imidazo[1,2-b]pyridazin-2-yl)-5-pyrimidinecarboxamide] displayed a half-maximal inhibitory concentration (IC50) of 2.32 nM.

The molecule `Cc1nnsc1C(=O)Nc1cn2nc(-c3c(-c4ccc(F)cc4)nc(C)n3C)ccc2n1` [Compound 351, N-(6-(4-(4-fluorophenyl)-1,2-dimethyl-1H-imidazol-5-yl)imidazo[1,2-b]pyridazin-2-yl)-4-methyl-1,2,3-thiadiazole-5-carboxamide] displayed an IC50 against CK1ε of 2.01 nM.

On to `Cc1nc(-c2ccc(F)cc2)c(-c2ccc3nc(NC(=O)c4cncn4C)cn3n2)n1C` [Compound 360, N-(6-(4-(4-fluorophenyl)-1,2-dimethyl-1H-imidazol-5-yl)imidazo[1,2-b]pyridazin-2-yl)-1-methyl-1H-imidazole-5-carboxamide], for which the concentration for half-maximal inhibition (IC50) against CK1ε was 5.38 nM. This IC50 is about 2.7-fold higher than that of the molecule before.

`Cc1nc(-c2ccc(F)cc2)c(-c2ccc3nc(NC(=O)c4nc[nH]n4)cn3n2)n1C` [Compound 368, N-(6-(4-(4-fluorophenyl)-1,2-dimethyl-1H-imidazol-5-yl)imidazo[1,2-b]pyridazin-2-yl)-1H-1,2,4-triazole-3-carboxamide] displayed an IC50 against CK1ε of 48.4 nM.

`Cc1nc(-c2ccc(F)cc2)c(-c2ccc3nc(NC(=O)c4ccno4)cn3n2)n1C` [Compound 387, N-(6-(4-(4-fluorophenyl)-1,2-dimethyl-1H-imidazol-5-yl)imidazo[1,2-b]pyridazin-2-yl)isoxazole-5-carboxamide] had an IC50 against CK1ε of 11.9 nM.

Molecule `Cc1cc(C(=O)Nc2cn3nc(-c4c(-c5ccc(F)cc5)nc(C)n4C)ccc3n2)n[nH]1` [Compound 401, N-(6-(4-(4-fluorophenyl)-1,2-dimethyl-1H-imidazol-5-yl)imidazo[1,2-b]pyridazin-2-yl)-5-methyl-1H-pyrazole-3-carboxamide] showed an IC50 on CK1ε of 34.2 nM.
